Test results reported in ChEMBL document CHEMBL4425107, “Monothiocarbamates Strongly Inhibit Carbonic Anhydrases in Vitro and Possess Intraocular Pressure Lowering Activity in an Animal Model of Glaucoma” (J Med Chem, 2016).
Active and inactive are the calls of the source. No cut-off for these calls is given here.

What was measured:
Carbonic anhydrase 9 = Carbonic anhydrase 9 (Homo sapiens, UniProt Q16790); assay: Inhibition of human carbonic anhydrase 9 catalytic domain preincubated for 15 mins by CO2 hydration stopped-flow assay
Carbonic anhydrase 2 = Carbonic anhydrase 2 (Homo sapiens, UniProt P00918); assay: Inhibition of human carbonic anhydrase 2 preincubated for 15 mins by CO2 hydration stopped-flow assay
Carbonic anhydrase 1 = Carbonic anhydrase 1 (Homo sapiens, UniProt P00915); assay: Inhibition of human carbonic anhydrase 1 preincubated for 15 mins by CO2 hydration stopped-flow assay
Oryctolagus cuniculus = assay: Ocular hypotensive activity in sterile hypertonic saline injected hypertensive New Zealand white rabbit assessed as reduction in intraocular pressure at 1 % administered as eye drops up to 240 mins post injection; format: functional, organism-based

Sequence of Carbonic anhydrase 1 (P00915 whole entry): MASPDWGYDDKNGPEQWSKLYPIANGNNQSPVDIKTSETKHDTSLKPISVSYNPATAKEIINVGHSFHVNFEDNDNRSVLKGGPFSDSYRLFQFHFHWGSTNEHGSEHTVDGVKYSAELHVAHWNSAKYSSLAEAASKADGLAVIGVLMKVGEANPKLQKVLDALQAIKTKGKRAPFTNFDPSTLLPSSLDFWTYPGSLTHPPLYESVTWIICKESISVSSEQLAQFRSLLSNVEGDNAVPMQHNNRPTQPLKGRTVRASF

O=C(S)N1CCN(c2ccc(F)cc2)CC1 gave a Ki (Carbonic anhydrase 9) of 6.5 nM.

With O=C(S)N1CCN(c2cccc(Cl)c2)CC1 the Ki (Carbonic anhydrase 9) was 4.9 nM and the Ki (Carbonic anhydrase 2) was > 2000 nM.

With O=C(S)N1CCN(c2ccc(C(F)(F)F)cc2)CC1 the Ki (Carbonic anhydrase 9) was 11.8 nM and the Ki (Carbonic anhydrase 1) was > 2000 nM.

With O=C(CN1CCN(C(=O)S)CC1)NC1CCCCC1 the Ki (Carbonic anhydrase 9) was 14 nM and the Activity (Oryctolagus cuniculus) was “Active”.

In the case of CCOC(=O)CN(C)C(=O)S, the Ki (Carbonic anhydrase 9) is reported as 22.1 nM.

With CCCCN(CCCC)C(=O)S the Ki (Carbonic anhydrase 9) was 6.8 nM and the Ki (Carbonic anhydrase 2) was > 2000 nM.

For CN(Cc1ccccc1)C(=O)S, the Ki (Carbonic anhydrase 9) was 11.7 nM, the Ki (Carbonic anhydrase 2) was > 2000 nM and the Ki (Carbonic anhydrase 1) was > 2000 nM.

For CN1CCN(NC(=O)S)CC1, the Ki (Carbonic anhydrase 9) was 7.7 nM and the Ki (Carbonic anhydrase 1) was > 2000 nM.

In the case of CCCCN(CC)C(=O)S, the Ki (Carbonic anhydrase 9) is reported as 6.2 nM and the Ki (Carbonic anhydrase 2) is reported as > 2000 nM.

In the case of O=C(S)NCCc1ccccc1, the Ki (Carbonic anhydrase 9) is reported as 21.5 nM, the Activity (Oryctolagus cuniculus) is reported as “Active” and the Ki (Carbonic anhydrase 1) is reported as > 2000 nM.

With CCCN(CCC)C(=O)S the Ki (Carbonic anhydrase 9) was 12.5 nM and the Ki (Carbonic anhydrase 1) was > 2000 nM.

Molecule COc1ccc(CCNC(=O)S)cc1OC has a Ki (Carbonic anhydrase 9) of 15.2 nM.

CC(C)CN(CC(C)C)C(=O)S showed a Ki (Carbonic anhydrase 9) of 9.2 nM.

With O=C(S)N1CCOCC1 the Ki (Carbonic anhydrase 9) was 13.5 nM and the Ki (Carbonic anhydrase 2) was > 2000 nM.
